Experiment [1] deals with T1, Aurora kinase B/Inner centromere protein (Homo sapiens, UniProt Q96GD4). Description: Inhibition of human AurB/INCENP in PBS using Biotin-Ahx-RARRRLSFFFFAKKK-NH2 as substrate incubated for 30 mins in presence of ATP. Format: protein-complex assay.
Experiment [2] has as its target T2, Aurora-C/INCENP (Homo sapiens, UniProt Q9NQS7+Q9UQB9). Description: Inhibition of human AurC/INCENP in PBS using Biotin-Ahx-RARRRLSFFFFAKKK-NH2 as substrate incubated for 30 mins in presence of ATP. It is filed as protein-complex assay.
Experiment [3] has as its target Vascular endothelial growth factor receptor 1 (Homo sapiens, UniProt P17948). Description: Inhibition of FLT1 (unknown origin).
The target in another experiment is Angiopoietin-1 receptor (Homo sapiens, UniProt Q02763). Description: Inhibition of TIE2 (unknown origin).
Sequence of Angiopoietin-1 receptor (Q02763 whole entry): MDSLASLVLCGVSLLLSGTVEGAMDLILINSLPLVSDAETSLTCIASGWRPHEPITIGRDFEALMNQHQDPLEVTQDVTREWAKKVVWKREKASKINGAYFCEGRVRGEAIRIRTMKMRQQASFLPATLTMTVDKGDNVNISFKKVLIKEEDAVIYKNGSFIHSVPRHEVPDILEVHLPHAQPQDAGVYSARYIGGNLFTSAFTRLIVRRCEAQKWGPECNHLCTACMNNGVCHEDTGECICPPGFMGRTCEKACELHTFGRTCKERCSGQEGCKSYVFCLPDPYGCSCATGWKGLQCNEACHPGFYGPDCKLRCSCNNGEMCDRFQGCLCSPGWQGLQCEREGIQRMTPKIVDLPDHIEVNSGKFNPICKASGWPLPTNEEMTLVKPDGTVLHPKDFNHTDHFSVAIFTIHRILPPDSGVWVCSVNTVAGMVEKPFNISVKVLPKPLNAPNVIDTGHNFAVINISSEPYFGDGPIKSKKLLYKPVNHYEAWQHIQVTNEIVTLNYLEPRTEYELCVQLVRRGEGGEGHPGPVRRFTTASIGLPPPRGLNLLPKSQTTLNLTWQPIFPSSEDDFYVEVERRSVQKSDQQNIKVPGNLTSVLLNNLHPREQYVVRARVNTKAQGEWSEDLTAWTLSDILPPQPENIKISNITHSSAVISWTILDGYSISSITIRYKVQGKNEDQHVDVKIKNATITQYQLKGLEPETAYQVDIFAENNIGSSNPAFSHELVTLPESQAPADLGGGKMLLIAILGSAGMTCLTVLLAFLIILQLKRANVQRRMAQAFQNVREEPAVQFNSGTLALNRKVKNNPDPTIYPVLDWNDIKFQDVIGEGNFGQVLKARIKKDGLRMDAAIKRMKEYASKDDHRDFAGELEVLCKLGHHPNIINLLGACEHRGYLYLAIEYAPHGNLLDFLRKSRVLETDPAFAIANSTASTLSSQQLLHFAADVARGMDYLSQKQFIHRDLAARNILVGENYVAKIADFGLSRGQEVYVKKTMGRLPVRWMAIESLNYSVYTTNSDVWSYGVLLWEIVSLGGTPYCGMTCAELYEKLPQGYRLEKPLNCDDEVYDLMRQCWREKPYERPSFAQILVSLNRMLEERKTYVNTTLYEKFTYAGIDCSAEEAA
Experiment [4] has as its target Serine/threonine-protein kinase SIK1 (Homo sapiens, UniProt P57059). Description: Inhibition of SIK (unknown origin).
Experiment [5] addresses T1, Aurora kinase B/Inner centromere protein. Description: Binding affinity to human AurB/INCENP assessed as inhibition constant using aurora sox peptide as substrate incubated for 60 mins in presence of ATP by fluorescence based assay. It is filed as protein-complex assay.
The target in experiment [6] is T2, Aurora-C/INCENP. Description: Binding affinity to human AurC/INCENP assessed as inhibition constant using aurora sox peptide as substrate incubated for 60 mins in presence of ATP by fluorescence based assay. It is filed as protein-complex assay.
Experiment [7] deals with T3, Aurora kinase B/Inner centromere protein (Homo sapiens) (UniProt Q96GD4+Q9NQS7). Conditions: dose 100.0 nM, time 60.0 min.
For experiment [8], the target named is T3, Aurora kinase B/Inner centromere protein (Homo sapiens). To be noted: dose 100.0 nM, time 60.0 min. The source holds these as a separate data set.
Experiment [9] addresses Aurora-C/INCENP (Homo sapiens) (UniProt Q9UQB9+Q9NQS7). Conditions: dose 100.0 nM, time 60.0 min.
For experiment [10], the target named is T3, Aurora kinase B/Inner centromere protein (Homo sapiens).
Description: Binding affinity to human AurB/INCENP assessed as dissociation half life

The results in this text go back to ChEMBL document CHEMBL5653602, “Biochemical characterization of GSK1070916, a potent and selective inhibitor of Aurora B and Aurora C kinases with an extremely long residence time1” (Biochem J, 2009).

pIC50, pKi: −log10 of the molar value. Activity calls are given as the source filed them. The calls are words filed in the database; no cut-off is given here. Where only a bound is given, the exact number is not on record here.

T1 sequence (Q96GD4 whole entry): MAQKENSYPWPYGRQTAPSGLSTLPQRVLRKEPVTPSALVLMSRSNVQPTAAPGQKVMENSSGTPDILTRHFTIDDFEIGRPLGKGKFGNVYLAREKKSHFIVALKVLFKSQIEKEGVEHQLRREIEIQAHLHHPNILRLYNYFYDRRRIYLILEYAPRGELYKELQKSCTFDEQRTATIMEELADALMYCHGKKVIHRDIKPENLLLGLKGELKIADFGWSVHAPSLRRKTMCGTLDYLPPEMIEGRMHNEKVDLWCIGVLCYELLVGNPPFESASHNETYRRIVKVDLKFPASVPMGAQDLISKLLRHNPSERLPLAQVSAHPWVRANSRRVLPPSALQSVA
T1 sequence (Q9NQS7 whole entry, further chain): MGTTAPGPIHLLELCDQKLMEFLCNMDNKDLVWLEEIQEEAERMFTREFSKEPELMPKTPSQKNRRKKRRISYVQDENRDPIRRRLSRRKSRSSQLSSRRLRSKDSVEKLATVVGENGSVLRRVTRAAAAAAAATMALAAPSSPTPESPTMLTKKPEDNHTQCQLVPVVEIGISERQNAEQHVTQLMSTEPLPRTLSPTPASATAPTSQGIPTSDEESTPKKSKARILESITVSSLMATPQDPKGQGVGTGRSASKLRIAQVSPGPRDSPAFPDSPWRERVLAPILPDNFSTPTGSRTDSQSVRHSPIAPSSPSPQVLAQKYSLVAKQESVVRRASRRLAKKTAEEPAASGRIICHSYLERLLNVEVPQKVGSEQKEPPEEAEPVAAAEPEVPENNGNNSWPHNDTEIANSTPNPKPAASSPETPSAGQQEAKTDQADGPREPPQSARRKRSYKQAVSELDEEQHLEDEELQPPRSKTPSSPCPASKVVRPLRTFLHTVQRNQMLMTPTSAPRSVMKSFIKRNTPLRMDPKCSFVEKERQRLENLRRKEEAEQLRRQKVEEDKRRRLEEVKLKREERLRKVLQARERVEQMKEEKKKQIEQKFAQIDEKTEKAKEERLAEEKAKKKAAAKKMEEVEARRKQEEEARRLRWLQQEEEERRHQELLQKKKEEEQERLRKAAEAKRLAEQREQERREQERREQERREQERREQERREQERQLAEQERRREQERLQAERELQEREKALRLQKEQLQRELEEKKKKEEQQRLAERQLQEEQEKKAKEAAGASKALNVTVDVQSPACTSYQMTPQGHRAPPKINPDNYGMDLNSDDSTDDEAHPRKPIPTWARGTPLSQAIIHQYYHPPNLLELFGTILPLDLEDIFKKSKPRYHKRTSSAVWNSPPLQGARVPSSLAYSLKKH
T2 sequence (Q9UQB9 whole entry): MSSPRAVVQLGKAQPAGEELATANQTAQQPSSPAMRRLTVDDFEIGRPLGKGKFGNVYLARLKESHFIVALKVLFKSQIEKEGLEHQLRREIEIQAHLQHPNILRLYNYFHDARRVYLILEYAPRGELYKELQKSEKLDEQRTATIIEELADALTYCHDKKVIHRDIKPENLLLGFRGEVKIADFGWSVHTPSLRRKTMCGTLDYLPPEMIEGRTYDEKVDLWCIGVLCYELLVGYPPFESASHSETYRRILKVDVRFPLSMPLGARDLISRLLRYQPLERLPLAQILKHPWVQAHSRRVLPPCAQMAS
T2 sequence (Q9NQS7 whole entry): as the sequence (Q9NQS7 whole entry, further chain) above
Sequence of Serine/threonine-protein kinase SIK1 (P57059 whole entry): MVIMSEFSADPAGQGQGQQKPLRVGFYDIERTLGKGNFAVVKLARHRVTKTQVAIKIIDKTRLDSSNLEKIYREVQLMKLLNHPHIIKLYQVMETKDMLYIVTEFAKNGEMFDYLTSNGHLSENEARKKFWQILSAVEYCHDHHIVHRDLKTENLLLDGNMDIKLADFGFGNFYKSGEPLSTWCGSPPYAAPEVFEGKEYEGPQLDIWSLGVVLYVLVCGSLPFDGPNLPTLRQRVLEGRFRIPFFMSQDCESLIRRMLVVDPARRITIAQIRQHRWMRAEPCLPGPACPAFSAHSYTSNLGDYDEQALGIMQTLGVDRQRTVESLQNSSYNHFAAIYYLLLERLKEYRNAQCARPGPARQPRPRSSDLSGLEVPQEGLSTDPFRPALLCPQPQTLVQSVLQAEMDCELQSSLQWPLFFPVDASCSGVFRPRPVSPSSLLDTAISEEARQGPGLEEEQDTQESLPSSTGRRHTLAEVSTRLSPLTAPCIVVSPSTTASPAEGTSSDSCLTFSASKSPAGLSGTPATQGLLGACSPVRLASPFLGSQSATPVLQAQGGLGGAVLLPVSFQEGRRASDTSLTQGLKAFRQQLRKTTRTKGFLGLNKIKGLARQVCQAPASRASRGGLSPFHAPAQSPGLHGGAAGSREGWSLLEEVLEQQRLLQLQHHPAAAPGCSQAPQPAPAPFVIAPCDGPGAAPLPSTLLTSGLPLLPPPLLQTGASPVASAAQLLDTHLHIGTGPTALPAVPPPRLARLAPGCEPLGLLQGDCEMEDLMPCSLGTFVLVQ
Sequence of Vascular endothelial growth factor receptor 1 (P17948 whole entry): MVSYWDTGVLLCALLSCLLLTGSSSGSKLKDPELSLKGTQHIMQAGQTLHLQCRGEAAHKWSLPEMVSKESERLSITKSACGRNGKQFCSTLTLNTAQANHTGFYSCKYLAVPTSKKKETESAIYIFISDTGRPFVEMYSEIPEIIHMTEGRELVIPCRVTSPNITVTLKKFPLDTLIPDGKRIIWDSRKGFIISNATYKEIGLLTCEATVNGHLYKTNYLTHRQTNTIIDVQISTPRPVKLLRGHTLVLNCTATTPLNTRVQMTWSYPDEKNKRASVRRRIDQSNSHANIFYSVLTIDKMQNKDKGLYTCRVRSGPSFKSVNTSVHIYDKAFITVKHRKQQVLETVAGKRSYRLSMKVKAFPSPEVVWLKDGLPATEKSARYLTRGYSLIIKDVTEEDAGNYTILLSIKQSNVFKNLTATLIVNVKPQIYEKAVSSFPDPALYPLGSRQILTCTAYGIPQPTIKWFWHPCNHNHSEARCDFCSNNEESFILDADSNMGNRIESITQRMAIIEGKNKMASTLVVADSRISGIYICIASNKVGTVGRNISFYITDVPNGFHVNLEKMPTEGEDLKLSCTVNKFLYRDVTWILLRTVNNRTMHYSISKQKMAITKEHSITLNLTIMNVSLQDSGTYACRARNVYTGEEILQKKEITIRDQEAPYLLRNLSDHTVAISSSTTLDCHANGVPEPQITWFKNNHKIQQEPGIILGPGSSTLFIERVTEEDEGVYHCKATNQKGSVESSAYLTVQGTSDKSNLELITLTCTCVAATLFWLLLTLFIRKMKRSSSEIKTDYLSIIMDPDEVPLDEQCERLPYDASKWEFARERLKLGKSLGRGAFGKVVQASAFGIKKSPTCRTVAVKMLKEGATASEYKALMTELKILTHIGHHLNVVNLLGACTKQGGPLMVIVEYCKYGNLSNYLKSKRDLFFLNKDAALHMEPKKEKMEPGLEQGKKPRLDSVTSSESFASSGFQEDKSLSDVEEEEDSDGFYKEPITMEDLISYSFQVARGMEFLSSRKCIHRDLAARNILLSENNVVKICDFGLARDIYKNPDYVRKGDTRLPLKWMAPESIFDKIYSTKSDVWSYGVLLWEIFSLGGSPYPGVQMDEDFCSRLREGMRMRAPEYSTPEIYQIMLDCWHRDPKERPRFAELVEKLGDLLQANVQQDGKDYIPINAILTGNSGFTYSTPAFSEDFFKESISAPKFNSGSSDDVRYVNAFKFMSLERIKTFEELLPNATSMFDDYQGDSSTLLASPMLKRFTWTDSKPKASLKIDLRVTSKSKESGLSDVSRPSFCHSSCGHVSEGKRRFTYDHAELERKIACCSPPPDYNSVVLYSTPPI

As to `CCn1cc(-c2ccnc3[nH]c(-c4cccc(CN(C)C)c4)cc23)c(-c2ccc(NC(=O)N(C)C)cc2)n1` [GSK-1070916], the pIC50 in experiment [1] was 8.46; on Aurora-C/INCENP [2], 8.19; in [3], 7.38; against Angiopoietin-1 receptor it was 7.23; in experiment [4] it was 7.15. Moreover, the pKi is 9.42 in [5] and 8.84 on Aurora-C/INCENP [6]. Moreover, in [7], the inhibition entry was “Active”. The T1/2 was more than 480 min in [8] and 270 min in experiment [9].
In experiment [10], `Cc1cc(Nc2cc(N3CCN(C)CC3)nc(Sc3ccc(NC(=O)C4CC4)cc3)n2)n[nH]1` returned a T1/2 of 25 min.
As for `CCN(CCCOc1ccc2c(Nc3cc(CC(=O)Nc4cccc(F)c4)[nH]n3)ncnc2c1)CCOP(=O)(O)O`, the T1/2 in experiment [10] stood at 15 min.
